In the test the test system is transcriptional activity of STAT3. In words: STAT3-responsive eGFP reporter assay in MDA-MB-468 cells. The format is cell-based, human. The note with it: for EGF-induced GFP reporter activity: EGF 20 ng/mL, different doses; for pIC50: Homo sapiens, MDA-MB-468, read-out: IC50 of STAT3 activation (eGFP reporter); for lowest concentration inhibiting STAT3 activation (eGFP reporter): as low as. The protocol: FIG. 10 illustrates an embodiment of the present invention and illustrates SIM-1 and SIM-2 inhibit expressions of IL6, RANTES, and other STAT3-dependent tumor promoting genes and proteins. (A) A gene array of STAT3 dependent 66 genes (listed in Table 1) was performed in mRNA samples of MDA-MB-468 cells. Realtime PCR plate coated with 66 primer sets of STAT3-dependent genes was run for four conditions including control, EGF (25 ng/mL), EGF+SIM-1 (10 nM) and EGF+SIM-2 (10 nM). The resultant Ct value was normalized with four different housekeeping genes, and then summarized with a heatmap analyses drawn in Morpheus server of Broad Institute. […] (C) The cloning of STAT3 response element of IL6 promoter upstream of GFP reporter was performed by GeneCopoea genome editing service (Rockville, MD). The bit score map and sequence of consensus STAT3 response element or SEQ ID NO: 2 was shown below. EGFP reporter assay was performed in EGF-induced (20 ng/mL) MDA-MB-468 after treatments of increasing doses of (D) SIM-1 and (E) SIM-2 for 5 hrs. Briefly, MDA-MB-468 cells were transfected with the plasmid for 24 hrs using Lipofectamine transfection strategy followed by the treatment with EGF (20 ng/mL) alone and together with increasing doses SIM-1 and SIM-2 for additional 5 hrs. After that live cells were recorded at Ex:Em=485/535 nm wavelength for GFP activity. (F) The scrambled STAT3 response element in IL6 promoter or SEQ ID NO: 3 was also synthesized partnering with GeneCopoea. One-way ANOVA (treatment as effector) was adopted to test the significance between groups at **p<0.01, #p<0.005, and *p<0.05. (G) The GFP reporter activity was measured where the scrambled gene was cloned upstream of eGFP reporter. Results are mean±SD of three different experiments Ns=no significance. (H) Realtime PCR analyses of IL6 was performed in MDA-MB-468 cells maintained under control, EGF (25 ng/mL), EGF+SIM-1(20 nM), and EGF+SIM-2 (20 nM) conditions for 5 hrs. (I) ELISA analysis of IL6 was performed after 48 hrs in MDA-MB-468 cells kept under similar treatment conditions. (J) Realtime PCR (5 hrs post-treatment) and (K) ELISA analyses of RANTES (48 hrs post treatment) were performed under similar condition. Results are mean±SD of three different experiments. One-way ANOVA (treatment as effector) was adopted to test the significance between groups at ***p<0.001, **p<0.01, and *p<0.05.
GFP reporter assay. To assay the transcriptional activities of STAT3, cells at 75% confluence were transfected by 0.1 μg of pEZX-PF02 plasmid cloned with STAT3 response element of IL6 promoter upstream of eGFP reporter. The transfection was done by Lipofectamine 3000™ reagent as per the manufacturer's protocol (Thermofisher). […] GFP reporter activities were analyzed in PerkinElmer VictorX3 plate reader at Ex:Em=485/535 nm.
Once recruited to the DNA, STAT3 controls the gene transcription. Therefore finally, an eGFP reporter assay was performed to evaluate if SIM-1 and SIM-2 inhibited the transcriptional activity of STAT3. An eGFP reporter cassette was cloned under the guidance of IL6 promoter carrying STAT response element (FIG. 10C), transfected in MDA-MB-468 cells, and then treated by EGF (20 ng/mL) along with different doses of SIM-1 and SIM-2.

pIC50: −log10 of the molar value.

For `O=C(O)CCC(=O)NCc1csc2ccc(Cl)cc12` [SIM-1, 4-[(5-chloro-1-benzothiophen-3-yl)methylamino]-4-oxobutanoic acid], the “EGF-induced GFP reporter activity” value is on record as “dose-dependently inhibited”, the pIC50 was around 7.70 and the “lowest concentration inhibiting STAT3 activation (eGFP reporter)” value is given as 5 nM.
Take `CCOC(=O)c1c(NC(C)=O)sc2c(Cl)c(/C=N/O)ccc12` [SIM-2, ethyl 2-acetamido-7-chloro-6-(hydroxyiminomethyl)-1-benzothiophene-3-carboxylate]: the “EGF-induced GFP reporter activity” value is listed as “dose-dependently inhibited”, the pIC50 was around 7.70 and the “lowest concentration inhibiting STAT3 activation (eGFP reporter)” value is 5 nM.

Broadly, the pIC50 is the negative decadic logarithm of the IC50, by convention in mol/L.

The values above are taken from patent publication US20250255847A1, “[…]s: Novel Drugs for Triple Negative Breast Cancer” (SIMMARON RSEARCH INC, priority 2024, published 2025).
